From patent publication US20150184246A1, “BIOMARKERS OF RESPONSE TO PROTEASOME INHIBITORS” (Millennium Pharmaceuticals, Inc., priority 2011, published 2015)
Counter-ions that a name gives are not always drawn. Like-named read-outs stand apart in the source and are kept apart here.

Assays:
[1] = system: hematological and solid tumor xenograft models; details: range of hematological and solid tumor xenograft models; cited from earlier work
[2] = system: relapsed multiple myeloma; details: cited from earlier work
[3] = system: t(4;14) translocation in MM; details: bortezomib alone or in combination; cited from earlier work
[4] = system: relapsed or refractory multiple myeloma; experiment: APEX phase 3 trial (039), bortezomib versus high-dose dexamethasone, EBMT response criteria; format: in vivo, human; details: for Complete response / Complete response achieved, number of patients / Median duration of response / One-year survival / complete response plus near-complete response / response rate (complete plus partial response (CR+PR)) / Median time to response: -039 trial; for Median time to response: both groups
Procedure: Patients who received dexamethasone were treated for a maximum of 280 days by the following method: received up to four 5-week treatment cycles, followed by up to five 4-week treatment cycles. Within each 5-week treatment cycle, the patient received dexamethasone 40 mg/day PO, once daily on Days 1 to 4, 9 to 12, and 17 to 20 of a 35-day cycle. Within each 4-week treatment cycle, the patient received dexamethasone 40 mg/day PO once daily on Days 1 to 4 of a 28 day cycle.
The following section presents more detailed information on the -039 trial. During the study, disease response was assessed according to the European Group for Blood and Marrow Transplant (EBMT) criteria as presented in Table 3.
Response and date of disease progression was determined by computer algorithm that integrated data from a central laboratory and case report forms from each clinical site, according to the Blade criteria (Table 3). […] See Richardson et al., supra.
Disease progression was determined by Blade criteria as described in Table 3 and above. […] The date of progression was determined by computer algorithm. P-value from log-rank test adjusted by actual randomization factors. See Richardson et al., supra.

[5] = system: multiple myeloma patients (NRAS / KRAS status of tumor); experiment: Pharmacogenomic analysis: pre-treatment NRAS/KRAS mutation status versus response, time-to-progression and overall survival; format: in vivo, human
Text: Patient samples and response criteria from patients participating in these studies, as well as the following additional studies described below were sought for use in pharmacogenomic analyses to identify markers associated with patient survival. […] The bone marrow aspirates were collected prior to the patient's treatment in the studies. […] Dexamethasone is a synthetic adrenocorticosteroid, CAS Registry No. […], administered as tablets (DECADRON® Merck & Co., Inc.). The trials are described in the following paragraphs.
Upon collection of patient bone marrow aspirate, the myeloma cells were enriched via rapid negative selection. The enrichment procedure employs a cocktail of cell-type specific antibodies coupled with an antibody that binds red blood cells RosetteSep (Stem Cell Technologies). The antibody cocktail has antibodies with the following specificity: CD14 (monocytes), CD2 (T and NK cells), CD33 (myeloid progenitors and monocytes), CD41 (platelets and megakaryocytes), CD45RA (naïve B and T cells) and CD66b (granulocytes). The antibodies cross-linked the non-myeloma cell types to the red blood cells in the samples. The bound cell types were removed using a modified ficoll density gradient. Myeloma cells were then collected and frozen. In the international studies, the first two samples from each site were collected and subjected to RNA isolation so that feedback on quantity and quality could be provided; ultimately Phase 2 and 3 trials provided a similar percentage of informative samples. Control bone marrow plasma cell samples were obtained from normal donors (AllCells, Berkeley, Calif.).
Flow through from the RNEASY® column was clarified by centrifugation, then concentrated about 10-fold with centrifugal ultrafilters (MICROCON® centrifugal filter device, YM-30 membrane (30 kDa limit), Millipore Corp. Billerica, Mass.). Impurities were removed using the Qiagen QIAMP® DNA Micro Kit. DNA from the sample was amplified using the Qiagen REPLI-G® WGA kit. Mutation status of DNA from 133 bone marrow tumor biopsies was determined by testing a panel of cancer genes and known tumor suppressors using the Sequenom (San Diego, Calif.) mass spectrometry genotype analysis system.
Rather, the platform interrogated tumor DNA only for specific sequences that were previously implicated in cancer (i.e. ‘hotspot’ mutations), relying largely on the prior knowledge that these are highly relevant in human cancer. The panel of mutations evaluated consisted of the ONCOCARTA™ version 1.0 and custom assays designed in collaboration with Sequenom and Millennium to expand the list of mutations surveyed to 514 known mutations in 41 oncogenes and tumor suppressor genes. Table 5 lists genes with mutations included in the panel and the number in parentheses 0 indicates the approximate number of mutations targeted in assays of the genes.
The custom assays were designed using TYPEPLEX® chemistry with single-base extension which determines the expected mass weight of the extend products to ensure separation between all potential peaks found within a multiplexed reaction. 15 nl of amplified and extended product is spotted on a 384 SpectroCHIP II using a Nanodispenser. A 3-point calibrant is added to every chip to ensure proper performance of the Sequenom Maldi-tof compact mass spectrometer. The SpectroCHIP II is placed in the Sequenom MALDI-TOF compact mass spectrometer. The mass spectrometer is set to fire a maximum of 9 acquisitions for each spot on the 384 well SpectroCHIP. TypePLEX Gold kit SpectroCHIP II is used following manufacturers recommended protocols.
Analysis is performed using Sequenom analysis software, MassARRAY® Typer Analyzer v4 with a mutation call filter of ≧8%, Signal:Noise>5 (background), followed by a manual inspections for false positives due to Impurities (ie Salts). Default threshold for positive mutant call is a minimal 10% mutant allele frequency, though signal as low as 3% may be detected. […]

[6] = system: relapsed and refractory myeloma; details: cited from earlier work
[7] = system: multiple myeloma patients (t(4;14) / NRAS status of tumor); experiment: t(4;14) and NRAS status versus response in patients with tumor subtype data; format: in vivo, human
Text: Table 12 details the t(4;14) and NRAS status of the current dataset for patients both with tumor subtype data (Mulligan et al. (2007) Blood 109:3177-3188) and who were response-evaluable (n=40).

[8] = bortezomib n = 315, dexamethasone n = 312
[9] = bortezomib versus dexamethasone
[10] = in this set of patients (pharmacogenomic set)
[11] = totals (all samples of the 2-by-2 table)
[12] = NRAS mutant and not t(4; 14), N=32
[13] = NRAS wild type and not t(4; 14), N=32

CC(C)C[C@H](NC(=O)CNC(=O)c1cc(Cl)ccc1Cl)B1OC(=O)C(CC(=O)O)(CC(=O)O)O1 [Ixazomib citrate, 2,2′-{2-[(1R)-1-({[(2,5dichlorobenzoyl)amino]acetyl}amino)-3-methylbutyl]-5-oxo-1,3,2-dioxaborolane-4,4-diyl}diacetic acid]
anti-tumor activity [1]: has anti-tumor activity

CC(C)C[C@H](NC(=O)[C@H](Cc1ccccc1)NC(=O)c1cnccn1)B(O)O [bortezomib, N(pyrazine)carbonyl-L-phenylalanine-L-leucine boronic acid]
complete response (CR)+partial response (PR) rate ([2]; bortezomib 1.0 mg/m^2, Study -024): 30% | complete response (CR)+partial response (PR) rate ([2]; bortezomib 1.3 mg/m^2, Study -024): 38% | effect on poor prognosis associated with the t(4;14) translocation [3]: at least partially overcomes the poor prognosis | Complete response [4]: 6% | Complete response achieved, number of patients [4]: 20 patients | Median duration of response [4]: 8 months | One-year survival [4]: 80% | complete response plus near-complete response [4]: 13% | response rate (complete plus partial response (CR+PR)) [4]: 38% | Median time to response [4]: 43 days | decrease in risk of death ([4]; bortezomib group versus dexamethasone, first year after enrollment): 41% | Best Confirmed Response: CR + PR + MR [4, 8]: 146 (46) n (%) | Best Confirmed Response: Complete Response [4, 8]: 20 (6) n (%) | Best Confirmed Response: Minor Response [4, 8]: 25 (8) n (%) | Best Confirmed Response: Near CR: IF+ [4, 8]: 21 (7) n (%) | Best Confirmed Response: No Change [4, 8]: 137 (43) n (%) | Best Confirmed Response: Not Evaluable [4, 8]: 10 (3) n (%) | Best Confirmed Response: Overall Response Rate (CR + PR) [4, 8]: 121 (38) n (%) | Best Confirmed Response: Progressive Disease [4, 8]: 22 (7) n (%) | Best Confirmed Response: SWOG Remission [4, 8]: 46 (15) n (%) | Difference (95% CI) in CR + PR + MR [4, 9]: 0.12 (0.04, 0.19) | Difference (95% CI) in Complete Response [4, 9]: 0.06 (0.03, 0.09) | Difference (95% CI) in Minor Response [4, 9]: −0.09 (−0.14, −0.04) | Difference (95% CI) in Near CR: IF+ [4, 9]: 0.06 (0.03, 0.09) | Difference (95% CI) in No Change [4, 9]: −0.04 (−0.12, 0.04) | Difference (95% CI) in Not Evaluable [4, 9]: −0.01 (−0.04, 0.02) | Difference (95% CI) in Overall Response Rate (CR + PR) [4, 9]: 0.20 (0.14, 0.27) | Difference (95% CI) in Partial Response [4, 9]: 0.15 (0.08, 0.21) | Difference (95% CI) in Progressive Disease [4, 9]: −0.06 (−0.11, −0.01) | Difference (95% CI) in SWOG Remission [4, 9]: 0.09 (0.05, 0.14) | Non-response, number of patient samples ([5]; KRAS mutant): 8 | Response, number of patient samples ([5]; KRAS mutant): 9 | Non-response, number of patient samples ([5]; KRAS wild type): 34 | Response, number of patient samples ([5]; KRAS wild type): 23 | Non-response, number of patient samples ([5]; NRAS mutant): 14 | Response, number of patient samples ([5]; NRAS mutant): 1 | Non-response, number of patient samples ([5]; NRAS wild type): 28 | Response, number of patient samples ([5]; NRAS wild type): 31 | CR+PR rate [5, 10]: 32% | overall response rate [5, 10]: 42.3% | time-to-progression after bortezomib treatment ([5]; patients whose pre-treatment bone marrow tumor samples had NRAS mutations): significantly lower | Non-response, number of patient samples [5, 11]: 42 | Response, number of patient samples [5, 11]: 32 | CR+PR+MR, number of patients ([6]; Study -025, of 193 patients): 67 patients | CR+PR, number of patients ([6]; Study -025, of 193 patients): 53 patients | CR+PR rate to bortezomib alone ([6]; Study -025): 27% | overall response rate (CR+PR+minimal response (MR)) to bortezomib alone ([6]; Study -025): 35% | Non-response, number of patients [7, 12]: 10 | Response, number of patients [7, 12]: 0 | Non-response, number of patients ([7]; NRAS mutant, n = 40 cohort): 10 | Response, number of patients ([7]; NRAS mutant, n = 40 cohort): 1 | Non-response, number of patients [7, 13]: 11 | Response, number of patients [7, 13]: 11 | Non-response, number of patients ([7]; NRAS wild type, n = 40 cohort): 13 | Response, number of patients ([7]; NRAS wild type, n = 40 cohort): 16 | Non-response, number of patients ([7]; Other subtypes, n = 40 cohort): 21 | Response, number of patients ([7]; Other subtypes, n = 40 cohort): 11 | Non-response, number of patients ([7]; t(4; 14), n = 40 cohort): 2 | Response, number of patients ([7]; t(4; 14), n = 40 cohort): 6

C[C@@H]1C[C@H]2[C@@H]3CCC4=CC(=O)C=C[C@]4(C)[C@@]3(F)[C@@H](O)C[C@]2(C)[C@@]1(O)C(=O)CO [dexamethasone]
Complete response [4]: < 1% | Complete response achieved, number of patients [4]: 2 patients | Median duration of response [4]: 5.6 months | One-year survival [4]: 66% | complete response plus near-complete response [4]: 2% | response rate (complete plus partial response (CR+PR)) [4]: 18% | Median time to response [4]: 43 days | Best Confirmed Response: CR + PR + MR [4, 8]: 108 (35) n (%) | Best Confirmed Response: Complete Response [4, 8]: 2 (<1) n (%) | Best Confirmed Response: Minor Response [4, 8]: 52 (17) n (%) | Best Confirmed Response: Near CR: IF+ [4, 8]: 3 (<1) n (%) | Best Confirmed Response: No Change [4, 8]: 149 (48) n (%) | Best Confirmed Response: Not Evaluable [4, 8]: 14 (4) n (%) | Best Confirmed Response: Overall Response Rate (CR + PR) [4, 8]: 56 (18) n (%) | Best Confirmed Response: Partial Response [4, 8]: 54 (17) n (%) | Best Confirmed Response: Progressive Disease [4, 8]: 41 (13) n (%) | Best Confirmed Response: SWOG Remission [4, 8]: 17 (5) n (%) | Non-response, number of patient samples ([5]; KRAS mutant): 6 | Response, number of patient samples ([5]; KRAS mutant): 3 | Non-response, number of patient samples ([5]; KRAS wild type): 14 | Response, number of patient samples ([5]; KRAS wild type): 8 | Non-response, number of patient samples ([5]; NRAS mutant): 3 | Response, number of patient samples ([5]; NRAS mutant): 3 | Non-response, number of patient samples ([5]; NRAS wild type): 17 | Response, number of patient samples ([5]; NRAS wild type): 8 | Non-response, number of patient samples [5, 11]: 20 | Response, number of patient samples [5, 11]: 11
